Entries after “also recorded” stand apart in the source; their conditions may differ.

Format in all cases: in vivo, human
One series relates to circulating iNKT cells. The series can be described thus: Flow cytometry of CD69 on circulating iNKT cells of COVID-19 patients during regadenoson infusion. (In general: A flow cytometer gives signals particle by particle.)
Series [1] can be described thus: Plasma levels of regadenoson in lung transplant recipients (LC-MS/MS). As for the experimental part: The peripheral blood samples for regadenoson measurement were collected at the following timepoints: 1) Prior to 1st lung reperfusion; 2) 1 hour post 1st lung perfusion; 3) 6 hours post infusion start; 4) 12 hours post infusion start; 5) 24 hours post infusion start. The blood samples were centrifuged, and the plasma samples were collected and stored at −80° C. The levels of regadenoson were determined via liquid chromatography-mass spectrometry with an improved d protocol based on our previous publication (LAU et al., J Heart Lung Transplant, (2020), 39:563-570) at The Mass Spectrometry Center at the School of Pharmacy, University of Maryland, Baltimore (detailed in supplemental methods).
Chemicals and Reagents. Regadenoson (purity 99.83%) was purchased from Selleckchem (Houston, TX, USA) and Regadenoson-d3 ((purity 99.68%) used as internal standard (IS) was obtained from Toronto Research Chemicals, (North York, ON, CT). Optima LC/MS grade water (H2O), methanol, and formic acid (FA) were purchased from Fisher Scientific (Pittsburgh, PA, USA).
Calibration Standards. 1 mg/ml stock solutions of Regadenoson and Regadenoson-d3 were prepared in Dimethyl sulfoxide (DMSO) and further working solutions to spike in plasma were prepared in methanol and water (70:30, v/v). Calibration standards (STD) in plasma ranged from 0.05 ng/ml to 50 ng/ml (8 points: 0.05, 0.1, 1, 5, 20, 30, 40, and 50 ng/ml). Quality control (QC) samples at 3 concentration levels (0.15 ng/ml, LQC; 25 ng/ml, MQC; and 45 ng/ml, HQC) were also prepared in plasma. Internal standard solution (Regadenoson-d3; 250 ng/ml) was prepared in methanol and water (70:30, v/v).
Sample Preparation. 50 μL of plasma sample (STD/QC/test sample) was added into a 2 ml centrifuge tube containing 20 μL of IS solution (250 ng/ml) and mixed well. Next, 500 μL of acetonitrile was added, shaken for 3 min at 2100 rpm, and centrifuged for 10 min at 15000 rpm. 400 μL of supernatant was transferred to glass tube and dried under a steady stream of nitrogen at 35° C. The sample was re-suspended in 100 μL of 0.1% formic acid in H2O: 0.1% formic acid in methanol (1:1 v/v) and injected (3 μl) into LC-MS/MS system.
Liquid Chromatography Tandem Mass Spectrometry (LC-MS/MS). LC-MS/MS analysis was performed on a TSO Altis Triple Stage Quadrupole Mass Spectrometer coupled to an Ultimate 3000 RS Liquid Chromatogram system (Thermo Scientific, San Jose, CA). The LC separation was performed on a BEH C18 column (2.1×50 mm, 1.7 μm) (Waters Corporations, Milford, MA) operated at 30° C. Mobile phase solvent A and B consisted of 0.1% FA in H2O and 0.1% FA in methanol, respectively. The gradient program started with 35% B; followed by a linear gradient to 50% Bin 0.7 min; maintained 50% B until 1.5 min; followed by a linear gradient back to 35% B in 2 min and maintained until 3 min. The flow rate was set at 0.22 ml/min. The retention time of Regadenoson and the IS was 1.09 min, and the total run time was 3 min.
Detection was performed in the positive-ion mode using electrospray ionization (ESI). Source parameters were as follows: spray voltage, 3500; Ion transfer tube temperature, 350; vaporizer temperature, 300; sheath gas pressure, 50; auxiliary gas pressure, 10; and sweet gas, 1. The compound parameters: collision energy (CE), and RF lens were 35 and 77 V, respectively for Regadenoson and the IS. Selected reaction monitoring (SRM) was used for mass detection with the following transitions: Regadenoson (m/z 391.1-259.2; quant) and (m/z 391.1-228.1; qual), Regadenoson-d3 (m/z 394.0-262.2; quant) and (m/z 394.0-228.2; qual). Data collection and analysis was performed by Xcalibur V 2.1 (Thermo Scientific, San Jose, CA).
Analytical parameters: The linear range is 0.05-50 ng/mL in human plasma. Samples that exceeded the upper limit of quantification were diluted 2 or 4 fold and reinjected.

For series [2], the system named is soluble receptor for advanced glycation end-products (sRAGE). The series can be described thus: Plasma sRAGE in lung transplant recipients. How it is done: Blood was drawn for cytokine/chemokine, damage associated molecular patterns (DAMPs) at the following different timepoints: 1) before infusion (baseline), 2) 15 minutes before reperfusion of the 1st lung, 3) 30 minutes after reperfusion of 1st lung, 4) 30 minutes after reperfusion of 2nd lung, and 5) 6 hours after reperfusion of 1st lung.
The cytokines/chemokines, HMGB1 and sRAGE were determined at The University of Virginia Flow Cytometry Core (RRID: SCR 017829) as previously described (LAU et al., J Heart Lung Transplant, (2020), 39:563-570). The customized 11-plex cytokine panel detects IL-1, IL-2, IL-6, IL-7, IL-8, IL-10, IL-12P40, IL-12P70, IL-17, TNFa, and IFN-γ (Millipore Sigma, Burlington, MA).
We designed this trial mainly as a Phase I safety and feasibility study that would allow an optimal infusional dose to be determined based on dose-limiting toxicities identified in lung transplant recipients. We also evaluated the potential efficacy by clinical outcomes and the lab evaluation of various cytokines/chemokines, DAMPs and enzymes. […] HMGB1 and sRAGE levels were measured using a customized human Cytokine/Chemokine multiplex immunoassay (Millipore Sigma, Burlington, MA) at The University of Virginia Flow Cytometry Core (RRID: SCR_01 7829) as previously described (LAU et al., J Heart Lung Transplant, (2020), 39:563-570).

For the compound `CNC(=O)c1cnn(-c2nc(N)c3ncn([C@@H]4O[C@H](CO)[C@@H](O)[C@H]4O)c3n2)c1` [Regadenoson], the “expression of activation marker CD69 on circulating iNKT cells” value with circulating iNKT cells (4 hours into the maintenance dose) and with circulating iNKT cells (after the 30 min loading dose) was “significantly reduced” throughout. Further, in the series with circulating iNKT cells (within 30 minutes), the “reduction of the fraction of circulating iNKT cells that are CD69+” value amounted to 50%. The “median peak plasma levels of regadenoson” value in series [1] (1.44 ug/kg/hour for 12 hours, preliminary result before dose alteration) was determined as 1.68 ng/mL; in series [1] (high dose, 2.88 ug/kg/hr), 14.34 ng/mL; in series [1] (low dose, 1.44 ug/kg/hr) it was 1.30 ng/mL. For the same compound, the “levels of regadenoson in blood” value in series [1] (after 24 hours post regadenoson infusion) was “minimal”. The “time of peak drug level post infusion start” value in series [1] (high dose group, 2.88 ug/kg/hr for 12 hours) turned out to be 12 h; in series [1] (low dose group, 1.44 ug/kg/hr for 12 hours), 6 h. Also, the “transplantation-induced plasma levels of sRAGE” value in series [2] (30 minutes post 1st lung reperfusion (low dose) and 30 minutes post 2nd lung reperfusion (low and high dose), P<0.0001 vs control) is “significantly diminished; also recorded: significantly reduced”. In series [2] (high dose, 30 minutes post the 1st lung reperfusion, P=0.0656), the “plasma sRAGE level” value is given as “decreased in trend”.
